In patent US6841519B1, “Isoxazoline derivatives and herbicides containing the same as the active ingredient” (Kumiai Chemical Industry Co., Ltd., priority 1999, dated 2005):

What was measured:
Format in all cases: in vivo
[1] = tested on: Echinochloa oryzicola Vasing. (Eo); assay: Test for herbicidal effect by paddy field soil treatment (Test Example 1); conditions: application amount (active ingredient) 100 g/10 a, examined at the 21st day from the treatment, index per Table 40
Method in brief: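 Eo seeds sown in puddled paddy soil under 3 cm water; next day a water-diluted wettable powder was dropped onto the water surface at 100 g active ingredient per 10 ares. Herbicidal effect scored on a standard scale 21 days after treatment, greenhouse-grown.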

[2] = tested on: Echinochloa crus-galli (L.) Beauv. var. crusgall (Ec); assay: Test for herbicidal effect by upland field soil treatment (Test Example 2), Ec
Method in brief: (§1)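 Echinochloa crus-galli and Setaria viridis were sown in upland field soil and covered, then the soil surface was sprayed with water-diluted wettable powder at 100 g active ingredient per 10 ares (100 liters per 10 ares). Plants were grown in a greenhouse and scored on a standard scale on day 21.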

[3] = tested on: Setaria viridis (L.) Beauv. (Se); assay: Test for herbicidal effect by upland field soil treatment (Test Example 2), Se
Method in brief: as §1

[4] = tested on: Echinochloa crus-galli (L.) Beauv. var. crusgalli (Ec); assay: Test for herbicidal effect by upland foliage treatment (Test Example 3); conditions: 100 g/10 a active ingredient, examined at 14th day
Method in brief: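 Potted upland-soil Ec seedlings grown 2 weeks in greenhouse, then foliage-sprayed with water-diluted wettable powder at 100 L per 10 ares, giving 100 g active ingredient per 10 ares. Herbicidal effect scored on a graded standard 14 days after treatment.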

[5] = application amount (active ingredient) 100 g/10 a, examined at the 21st day from the treatment, index per Table 40
[6] = 100 g/10 a active ingredient, examined at 21st day

Row | SMILES | Herbicidal effect to Eo [1] | Herbicidal effect to Ec [2, 5] | Herbicidal effect to Se [3, 5] | Herbicidal effect to Ec [4] | Herbicidal effect to Ec [2, 6] | Herbicidal effect to Se [3, 6]
1 | O=S(=O)(Cc1c(F)cccc1F)C1=NOC2(CCCC2)C1 [Compound 1-383] | 5 (A herbicidal effect or phytotoxicity of 90% or more) | 5 (A herbicidal effect or phytotoxicity of 90% or more) | 4 (A herbicidal effect or phytotoxicity of 70% to less than 90%) | 4 (A herbicidal effect or phytotoxicity of 70% to less than 90%) |  | 
2 | CC1(C)CC(S(=O)(=O)Cc2c(F)cccc2C(F)(F)F)=NO1 [Compound 1-527] | 5 (A herbicidal effect or phytotoxicity of 90% or more) |  |  | 5 (A herbicidal effect or phytotoxicity of 90% or more) | 5 (A herbicidal effect or phytotoxicity of 90% or more) | 5 (A herbicidal effect or phytotoxicity of 90% or more)
3 | CC1(C)CC(S(=O)(=O)Cc2c(Cl)cccc2Cl)=NO1 [Compound 1-490] | 5 (A herbicidal effect or phytotoxicity of 90% or more) | 5 (A herbicidal effect or phytotoxicity of 90% or more) | 4 (A herbicidal effect or phytotoxicity of 70% to less than 90%) | 4 (A herbicidal effect or phytotoxicity of 70% to less than 90%) |  | 
4 | CC1(C)CC(S(=O)(=O)Cc2c(F)cccc2I)=NO1 [Compound 1-548] | 5 (A herbicidal effect or phytotoxicity of 90% or more) |  |  | 5 (A herbicidal effect or phytotoxicity of 90% or more) | 5 (A herbicidal effect or phytotoxicity of 90% or more) | 5 (A herbicidal effect or phytotoxicity of 90% or more)
5 | CCCOc1cccc(Cl)c1CS(=O)(=O)C1=NOC(C)(C)C1 [Compound 1-565] | 5 (A herbicidal effect or phytotoxicity of 90% or more) |  |  | 4 (A herbicidal effect or phytotoxicity of 70% to less than 90%) | 5 (A herbicidal effect or phytotoxicity of 90% or more) | 5 (A herbicidal effect or phytotoxicity of 90% or more)
6 | CC1(C2CC2)CC(S(=O)(=O)Cc2ccccc2OC(F)F)=NO1 (stereo not shown) [Compound 1-562] | 5 (A herbicidal effect or phytotoxicity of 90% or more) |  |  | 4 (A herbicidal effect or phytotoxicity of 70% to less than 90%) | 5 (A herbicidal effect or phytotoxicity of 90% or more) | 5 (A herbicidal effect or phytotoxicity of 90% or more)
7 | CC1(C)CC(S(=O)(=O)Cc2c(F)c(F)c(F)c(F)c2F)=NO1 [Compound 1-531] | 5 (A herbicidal effect or phytotoxicity of 90% or more) |  |  | 5 (A herbicidal effect or phytotoxicity of 90% or more) | 5 (A herbicidal effect or phytotoxicity of 90% or more) | 5 (A herbicidal effect or phytotoxicity of 90% or more)
8 | Cc1ccc(CS(=O)(=O)C2=NOC(C)(C)C2)cc1C [Compound 1-513] | 5 (A herbicidal effect or phytotoxicity of 90% or more) |  |  | 5 (A herbicidal effect or phytotoxicity of 90% or more) | 5 (A herbicidal effect or phytotoxicity of 90% or more) | 5 (A herbicidal effect or phytotoxicity of 90% or more)
9 | CC1(C)CC(S(=O)(=O)Cc2ccc(F)c(F)c2)=NO1 [Compound 1-497] | 5 (A herbicidal effect or phytotoxicity of 90% or more) | 5 (A herbicidal effect or phytotoxicity of 90% or more) | 5 (A herbicidal effect or phytotoxicity of 90% or more) | 5 (A herbicidal effect or phytotoxicity of 90% or more) |  | 
10 | CC1(C)CC(S(=O)(=O)Cc2ccc(Cl)cc2Cl)=NO1 [Compound 1-488] | 5 (A herbicidal effect or phytotoxicity of 90% or more) | 5 (A herbicidal effect or phytotoxicity of 90% or more) | 4 (A herbicidal effect or phytotoxicity of 70% to less than 90%) | 4 (A herbicidal effect or phytotoxicity of 70% to less than 90%) |  | 
